Read-outs that look alike come from different tables or passages of the source.
System: Nitrosomonas eutropha D23
Test: Antibiotic susceptibility (MIC) of N. eutropha D23 cultures in vitro
Format: cell-based
Settings: for MIC Interpretive Criteria (phenotype of N. eutropha D23): CLSI criteria, MIC levels of the outcome stand in parentheses in the cell; for MIC: 30° C., 48-72 hr, OD600, two-fold dilution series
Description: The activities of five antibiotics, each representing a different antibiotic class, were tested against Nitrosomonas eutropha D23. The antibiotics tested included clindamycin, erythromycin, gentamicin, piperacillin with or without the β-lactamase inhibitor Tazobactam, and tetracycline. These were chosen based on the Clinical and Laboratory Standards Institute (CLSI) recommendations for routine testing and reporting of phylogenetically-related proteobacteria (Pseudomonas aeruginosa) listed under Non-fastidious organisms and Non-Enterobacteriaceae in the CLSI 24th Informational Supplement (M100-S24), and also included topical or systemic antimicrobial agents commonly used against acne, such as clindamycin or tetracycline. Studies with clindamycin were included even though this antibiotic was not expected to be very effective at inhibiting Nitrosomonas, as is the case for other aerobic Gram-negative bacteria.
Minimal Inhibitory Concentrations (MICs) were determined by culturing N. eutropha D23 in decreasing concentrations of each of the five antibiotics. Bacterial growth at 30° C. was monitored for 48-72 hr by determining optical density (OD600) values in samples collected at 24 hr intervals. MIC values were identified as the lowest antibiotic concentration from a two-fold dilution series leading to no increase in OD600 measurements for the 2 or 3-day incubation period. The N. eutropha D23 phenotype in each antibiotic test was determined as Susceptible, Intermediate, or Resistant according to the MIC Interpretive Criteria provided by the CLSI. […] Clindamycin resistance observed for N. eutropha D23 is in agreement with previous reports for natural resistance of aerobic Gram-negative bacteria to this antibiotic. In addition to testing the β-lactam antibiotic piperacillin alone, the broad range β-lactamase inhibitor Tazobactam was also tested in combination with piperacillin to assess the possible expression of β-lactamase(s) by N. eutropha D23.

[1] = Nitrosomonas eutropha, D23, read-out: MIC

Compound: CC[C@H]1OC(=O)[C@H](C)[C@@H](O[C@H]2C[C@@](C)(OC)[C@@H](O)[C@H](C)O2)[C@H](C)[C@@H](O[C@@H]2O[C@H](C)C[C@H](N(C)C)[C@H]2O)[C@](C)(O)C[C@@H](C)C(=O)[C@H](C)[C@@H](O)[C@]1(C)O [Erythromycin]
- MIC Interpretive Criteria (phenotype of N. eutropha D23): Susceptible (≤0.5 μg/ml)
- MIC Interpretive Criteria (phenotype of N. eutropha D23) (listed as erythromycin): susceptibility
- MIC [1]: 0.16 µg/mL

Compound: Piperacillin/Tazobactam
- MIC: 64/4
- MIC Interpretive Criteria (phenotype of N. eutropha D23): Intermediate

Compound: CN(C)[C@@H]1C(O)=C(C(N)=O)C(=O)[C@@]2(O)C(O)=C3C(=O)c4c(O)cccc4[C@@](C)(O)[C@H]3C[C@@H]12 [Tetracycline]
- MIC [1]: 8 µg/mL

Compound: Gentamicin
- MIC: 0.25 µg/mL
- MIC Interpretive Criteria (phenotype of N. eutropha D23): Susceptible (≤4 μg/ml)
- MIC Interpretive Criteria (phenotype of N. eutropha D23) (listed as gentamicin): susceptibility

Compound: CCN1CCN(C(=O)N[C@@H](C(=O)N[C@@H]2C(=O)N3[C@@H]2SC(C)(C)[C@@H]3C(=O)O)c2ccccc2)C(=O)C1=O [Piperacillin]
- MIC Interpretive Criteria (phenotype of N. eutropha D23): Intermediate (32-64 μg/ml)
- MIC Interpretive Criteria (phenotype of N. eutropha D23) (listed as piperacillin): intermediate resistance
- MIC [1]: 64 µg/mL

Compound: C[C@]1(Cn2ccnn2)[C@H](C(=O)O)N2C(=O)C[C@H]2S1(=O)=O [Tazobactam]
- effect of adding the β-lactamase inhibitor to piperacillin on N. eutropha D23 susceptibility (in combination with piperacillin): no increase in N. eutropha D23 susceptibility

Compound: CCC[C@@H]1C[C@@H](C(=O)N[C@@H]([C@H]2O[C@H](SC)[C@H](O)[C@@H](O)[C@H]2O)[C@H](C)Cl)N(C)C1 [Clindamycin]
- MIC [1]: > 16 µg/mL

Reference: patent US12091652B2, “Ammonia-oxidizing Nitrosomonas eutropha strain D23” (priority 2014, dated 2024)
